Results reported in US5124352A, “Fat emulsions containing isocarbacyclin” (Teijin Limited, priority 1985, dated 1992).

Key:
human platelets = assay: Time course of the formation of cyclic AMP using human platelets (production capability and maintenance of cyclic AMP); format: cell-based; settings: for Relative value (C-AMP production): first time point of the series = 100; for C-AMP production: human platelets, 37° C.
Procedure: The time course of the formation of cyclic AMP by the fat emulsion in the invention was determined using human platelets so as to compare with the time course of the compound which was not emulsified in fat. Human blood 50 ml was collected using 1 part of 3.8 % sodium citrate for 9 parts of blood. The blood sample was centrifuged at 1300 rpm for 10 minutes. The upper layer was taken out as PRP (platelet-rich plasma) and centrifuged at 3000 rpm for 20 minutes. The precipitate thus obtained (platelets) was suspended in 2 ml of Tris buffered solution-saline-glucose-EDTA (TSG-EDTA) (pH 7.4).
The fat emulsion, which had previously been transferred in a plastic tube containing 350 μl of TSG-EDIA and 50 μl of platelet suspension and incubated at 37° C., was supplemented with 50 μl of 5mM isobutylmethylxanthin dissolved in saline, and 2 minutes later, reactions were stopped with 0.5 ml of 10% trichloroacetic acid (TCA). The cells were destroyed by thawing the lyophilized specimen in order to release intracellular cyclic AMP. After removal of TCA with watersaturated ether, the content of C-AMP was determined by radio immunoassay technique.

[1] = tested on: PRP (ADP platelet agglutination); assay: ADP platelet agglutination inhibitory action by PRP; format: cell-based; design: reference not given here; settings: 37° C., 0.025 μm filtrate
Procedure: Fifty (50) μl of the fat emulsion obtained in Examples 1 and 2 was transferred into 950 μl of saline or 2 % bovine serum albumin (BSA) and incubated at 37° C. for 1, 3, and 10 minutes. Next, the ADP platelet agglutination inhibitory action by PRP was determined using the filtrate which had been passed through a 0.025 μm filter. A known quantity of the dilution before filtration was added to PRP and incubated at 37° C. for 1 minute. Thereafter, ADP agglutination was induced to construct a dose-response curve. The platelet agglutination inhibitory action was calculated from this curve.

Row | SMILES | Relative value (C-AMP production) (human platelets; Time 10 min) [%] | C-AMP production (human platelets; Time 10 min) [pico mol] | Relative value (C-AMP production) (human platelets; Time 30 min) [%] | C-AMP production (human platelets; Time 30 min) [pico mol] | Relative value (C-AMP production) (human platelets; Time 60 min) [%] | C-AMP production (human platelets; Time 60 min) [pico mol] | Platelet agglutination inhibitory action ([1]; 2% BSA, incubation time 1 min) [%] | Platelet agglutination inhibitory action ([1]; 2% BSA, incubation time 10 min) [%] | Platelet agglutination inhibitory action ([1]; Saline, incubation time 10 min) [%] | Relative value (C-AMP production) (human platelets; Time 0 min) [%] | C-AMP production (human platelets; Time 0 min) [pico mol] | Relative value (C-AMP production) (human platelets; Time 120 min) [%] | C-AMP production (human platelets; Time 120 min) [pico mol]
1 | CCCCCC(O)C=CC1C(O)CC2C=C(CCCCC(=O)O)CC21 (centres unmarked) [Compound (II), 16,17,18,19,20-pentanor-15-pentylisocarbacyclin] | 100 | 430 | 74 | 320 | 27 | 120 |  |  |  |  |  |  | 
2 | CCCCCC(O)C=CC1C(O)CC2C=C(CCCCC(=O)O)CC21 (stereo not drawn) [Compound (I), 9(0)-methano-Δ^6(9α) -PGI1] |  |  | 63 | 200 | 31 | 100 | 100.1 | 107.7 | 41.1 | 100 | 320 |  | 
3 | CCCCCC(O)C=CC1C(O)CC2C=C(CCCCC(=O)OC)CC21 (centres unmarked) [(IV), isocarbacyclin methyl ester] |  |  |  |  |  |  | 65.4 | 56.2 |  |  |  |  | 
4 | COC(=O)CCCC=C1OC2CC(O)C(C=CC(O)C3CCCC3)C2C1F (centres unmarked) [Compound (III), 7-fluoro-16,17,18,19, 20-pentanor-15-cyclopentylprostacyclin methyl ester] |  |  | 100 | 100 | 90 | 90 |  |  |  |  |  | 40 | 40
